Experiment [1] can be described thus: Action of reducing testosterone level in blood in mature male rat (1 mM peptide in 50% DMSO, ALZET osmotic pump). In kind it is in vivo. As to conditions: 1 mM peptide in 50% DMSO aqueous solution, ALZET osmotic pump s.c., six days. How it is done:
The peptide was encapsulated in five ALZET osmotic pump (Model 2001, 0.2 ml of volume, releasing rate 0.001 ml/hr, DURECT Corporation). The ALZET pumps encapsulated with the peptide solution were implanted to dorsal subcutaneous of five male CD (SD) IGS rat at nine weeks age (Charles River Japan, Inc.) anesthesized with ether for one pump to one rat. Separately, for negative controls, the ALZET osmotic pumps encapsulated with distilled water were implanted to five male CD (SD) IGS rat (Charles River Japan, Inc.) The rats were bred for six days under the normal conditions. After weighing, blood was collected by decapitation. To 1 ml of blood, 0.03 ml of aprotinin (Trasylol, Byer) solution containing 0.1 g/ml EDTA 2Na was added. The plasma was isolated by centrifugation at 1,800×g for 25 minutes and collected. The thus obtained plasma, 0.05 ml was effected by radioimmunoassay. (DPC Total Testosterone Kit, Diagnostic Products Corporation) to measure testosterone level in blood of each rat. The value beneath measuring limit of radioimmunoassay (0.04 ng/ml as concentration of plasma) was treated as zero. The mean values for testosterone level of five rats, to which the peptide was given, was calculated and the relative value (percentage) for the mean values of testosterone level of five rats, to which distilled watrer was given, was estimated.

Experiment [2] addresses T1, hOT7T175 (Homo sapiens, UniProt Q969F8, L364H).
T1 construct: expressed in transfected cells
The format is cell-based. As to conditions: hOT7T175/CHO, FLIPR, evaluation for 40 seconds after initiation of the reaction.
Procedure: The intracellular Ca ion level-increasing activity was measured using FLIPR as in TEST EXAMPLE 2.

In experiment [3] the target is T1, hOT7T175. Put plainly: Intracellular Ca ion level-increasing activity using FLIPR (180 seconds; specific activity to Metastin (1-54)). As to conditions: hOT7T175/CHO, relative to Metastin (1-54) = 1. In kind it is cell-based.

This note sets out measurements from patent publication US8778871B2 (Takeda Pharmaceutical Company Limited, priority 2004, dated 2014).

Non-standard residues stand in square brackets, D forms with d. Residues, ends and D or L forms follow the SMILES beside them. *: point of attachment. Arg(Me) = CNC(=N)NCCC[C@H](N)C(=O)O; dNMeY = CN[C@H](Cc1ccc(O)cc1)C(=O)O; X4 = NC(=S)[C@H](Cc1ccccc1)N*; pGlu = O=C1CC[C@@H](C(=O)O)N1; Abu = CC[C@H](N)C(=O)O; azaGly = NNC(=O)O

T1 sequence (Q969F8 whole entry L364H): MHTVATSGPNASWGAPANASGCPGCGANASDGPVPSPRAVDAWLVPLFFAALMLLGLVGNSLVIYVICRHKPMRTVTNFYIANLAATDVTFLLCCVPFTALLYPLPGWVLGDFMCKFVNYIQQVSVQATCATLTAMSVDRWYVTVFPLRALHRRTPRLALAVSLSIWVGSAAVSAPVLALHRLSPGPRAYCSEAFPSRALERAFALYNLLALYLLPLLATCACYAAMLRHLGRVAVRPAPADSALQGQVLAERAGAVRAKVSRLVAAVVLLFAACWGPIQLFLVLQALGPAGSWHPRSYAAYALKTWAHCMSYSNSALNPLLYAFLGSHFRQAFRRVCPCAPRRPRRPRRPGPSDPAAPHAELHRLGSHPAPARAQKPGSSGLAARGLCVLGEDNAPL

On to “Ac-[dK][dW]NTF[azaGly]L[Arg(Me)]W-NH2 [Compound No. 621]”, for which the “Testosterone level in Blood” value in experiment [1] was determined as 2%. Also, in experiment [2], the “Specific Act. (EC50/MS10 EC50)” value worked out at 1.9.

As to “pGlu-D-Tyr-D-Trp-Asn-Thr-Phe-AzaGly-Leu-Arg(Me)-Trp-NH2 ([pGlu][dY][dW]NTF[azaGly]L[Arg(Me)]W-NH2; SMILES CNC(=N)NCCC[C@H](NC(=O)[C@H](CC(C)C)NC(=O)NNC(=O)[C@H](Cc1ccccc1)NC(=O)[C@@H](NC(=O)[C@H](CC(N)=O)NC(=O)[C@@H](Cc1c[nH]c2ccccc12)NC(=O)[C@@H](Cc1ccc(O)cc1)NC(=O)[C@@H]1CCC(=O)N1)[C@@H](C)O)C(=O)N[C@@H](Cc1c[nH]c2ccccc12)C(N)=O) [Compound No. 652]”, in experiment [1], the “Testosterone level in Blood” value came to 2%. Further, the “Specific Act. (EC50/MS10 EC50)” value in experiment [2] was determined as 0.9.

On to “Ac-[dA][dW]NTF[azaGly]L[Arg(Me)]W-NH2 [Compound No. 616]”, for which the “Testosterone level in Blood” value in experiment [1] came out at 2%. Besides, the “Specific Act. (EC50/MS10 EC50)” value in experiment [2] was 1.1.

Regarding “Ac-[dY][dE]NTF[azaGly]L[Arg(Me)]W-NH2 [Compound No. 630]”, the “Testosterone level in Blood” value in experiment [1] was 2%. Also, the “Specific Act. (EC50/MS10 EC50)” value in experiment [2] amounted to 4.2.

For “Ac-[dNMeY][dW]NTF[azaGly]L[Arg(Me)]W-NH2 [Compound No. 602]”, in experiment [1], the “Testosterone level in Blood” value is 2%. The “Specific Act. (EC50/MS10 EC50)” value in experiment [2] was found to be 2.4.

As to “Ac-G[dY][dW]NTF[azaGly]L[Arg(Me)]W-NH2 [Compound No. 649]”, the “Testosterone level in Blood” value in experiment [1] was determined as 2%. Further, the “Specific Act. (EC50/MS10 EC50)” value in experiment [2] is listed as 1.

For the molecule `CNC(=N)NCCC[C@H](NC(=O)[C@H](CC(C)C)NC(=O)CNC(=O)[C@H](Cc1ccccc1)NC(=O)[C@H](CO)NC(=O)[C@@H](NC(=O)[C@H](Cc1c[nH]c2ccccc12)NC(=O)[C@H](CC(N)=O)NC(=O)[C@H](N)Cc1ccc(O)cc1)[C@@H](C)O)C(=O)N[C@@H](Cc1ccccc1)C(N)=O` [Compound No. 208] (H-[dY]NWTSFGL[Arg(Me)]F-NH2), the “Specific Act. (EC50/MS10 EC50)” value in experiment [2] turned out to be 7.3. The “Specific Act. (intracellular Ca ion level-increasing activity, specific activity to Metastin (1-54))” value in experiment [3] is given as 1.

Turning to `CC[C@H](NC(=O)CNC(=O)[C@H](Cc1ccccc1)NC(=O)[C@H](CO)NC(=O)[C@H](CC(N)=O)NC(=O)[C@H](Cc1c[nH]c2ccccc12)NC(=O)[C@H](CC(N)=O)NC(=O)[C@@H](N)Cc1ccc(O)cc1)C(=O)N[C@@H](CCCNC(=N)N)C(=O)N[C@@H](Cc1ccccc1)C(N)=O` [Compound No. 187, Tyr-Asn-Trp-Asn-Ser-Phe-Gly-Abu-Arg-Phe-NH2] (H-YNWNSFG[Abu]RF-NH2), the “Specific Act. (EC50/MS10 EC50)” value in experiment [2] turned out to be 1.9. For the same molecule, the “Specific Act. (intracellular Ca ion level-increasing activity, specific activity to Metastin (1-54))” value in experiment [3] is given as 1.

Turning to `CNC(=N)NCCC[C@H](NC(=O)[C@H](CC(C)C)NC(=O)CNC(=O)[C@H](Cc1ccccc1)NC(=O)[C@H](C)NC(=O)[C@H](CC(N)=O)NC(=O)[C@H](Cc1c[nH]c2ccccc12)NC(=O)[C@H](CC(N)=O)NC(=O)[C@H](N)Cc1ccc(O)cc1)C(=O)N[C@@H](Cc1ccccc1)C(N)=O` [Compound No. 212] (H-[dY]NWNAFGL[Arg(Me)]F-NH2), in experiment [2], the “Specific Act. (EC50/MS10 EC50)” value came out at 1.1. For the same molecule, in experiment [3], the “Specific Act. (intracellular Ca ion level-increasing activity, specific activity to Metastin (1-54))” value is on record as 10.

As to `CC(C)C[C@H](NC(=O)CNC(=O)[C@H](Cc1ccccc1)NC(=O)[C@H](CO)NC(=O)[C@H](CC(N)=O)NC(=O)[C@H](Cc1c[nH]c2ccccc12)NC(=O)[C@H](CC(N)=O)NC(=O)[C@@H](N)Cc1ccc(O)cc1)C(=O)N[C@@H](CCCNC(=N)N)C(=O)N[C@@H](Cc1ccccc1)C(N)=S` [Compound No. 128] (H-YNWNSFGLR-X4), in experiment [2], the “Specific Act. (EC50/MS10 EC50)” value is listed as 0.5. Moreover, the “Specific Act. (intracellular Ca ion level-increasing activity, specific activity to Metastin (1-54))” value in experiment [3] amounted to 10.

On to `CC(C)C[C@H](NC(=O)CNC(=O)[C@H](Cc1ccccc1)NC(=O)[C@H](CO)NC(=O)[C@H](CC(N)=O)NC(=O)[C@H](Cc1c[nH]c2ccccc12)NC(=O)[C@H](CC(N)=O)NC(=O)[C@@H](N)Cc1ccc(O)cc1)C(=O)N[C@@H](CCCCNC(=N)N)C(=O)N[C@@H](Cc1ccccc1)C(N)=O` [Compound No. 97], for which the “Specific Act. (EC50/MS10 EC50)” value in experiment [2] stood at 2.9. Further, in experiment [3], the “Specific Act. (intracellular Ca ion level-increasing activity, specific activity to Metastin (1-54))” value was 10.
